# Assay results from ChEMBL document CHEMBL3217564, “The design and synthesis of 5- and 6-isoxazolylbenzimidazoles as selective inhibitors of the BET bromodomains” (Medchemcomm, 2013).
# Assays:
# [1] = biological target: T1, Bromodomain-containing protein 4 (Homo sapiens, UniProt O60885); assay: Inhibition of BRD4 bromodomain-1 (unknown origin) by AlphaScreen assay
# [2] = Inhibition of CBP (unknown origin) by AlphaScreen assay; parameters: species or system Homo sapiens
# [3] = biological target: T1, Bromodomain-containing protein 4; assay: Binding affinity to BRD4 bromodomain-2 (unknown origin) assessed as change in melting temperature at 10 uM by differential scanning fluorimetric analysis
# [4] = biological target: Histone acetyltransferase KAT2B (Homo sapiens) (UniProt Q92831); assay: Binding affinity to PCAF bromodomain (unknown origin) assessed as change in melting temperature at 10 uM by differential scanning fluorimetric analysis
# [5] = biological target: T2, Transcription intermediary factor 1-alpha (Homo sapiens) (UniProt O15164); assay: Binding affinity to TIF1alpha bromodomain (unknown origin) assessed as change in melting temperature at 10 uM by differential scanning fluorimetric analysis
# T2 sequence (whole entry): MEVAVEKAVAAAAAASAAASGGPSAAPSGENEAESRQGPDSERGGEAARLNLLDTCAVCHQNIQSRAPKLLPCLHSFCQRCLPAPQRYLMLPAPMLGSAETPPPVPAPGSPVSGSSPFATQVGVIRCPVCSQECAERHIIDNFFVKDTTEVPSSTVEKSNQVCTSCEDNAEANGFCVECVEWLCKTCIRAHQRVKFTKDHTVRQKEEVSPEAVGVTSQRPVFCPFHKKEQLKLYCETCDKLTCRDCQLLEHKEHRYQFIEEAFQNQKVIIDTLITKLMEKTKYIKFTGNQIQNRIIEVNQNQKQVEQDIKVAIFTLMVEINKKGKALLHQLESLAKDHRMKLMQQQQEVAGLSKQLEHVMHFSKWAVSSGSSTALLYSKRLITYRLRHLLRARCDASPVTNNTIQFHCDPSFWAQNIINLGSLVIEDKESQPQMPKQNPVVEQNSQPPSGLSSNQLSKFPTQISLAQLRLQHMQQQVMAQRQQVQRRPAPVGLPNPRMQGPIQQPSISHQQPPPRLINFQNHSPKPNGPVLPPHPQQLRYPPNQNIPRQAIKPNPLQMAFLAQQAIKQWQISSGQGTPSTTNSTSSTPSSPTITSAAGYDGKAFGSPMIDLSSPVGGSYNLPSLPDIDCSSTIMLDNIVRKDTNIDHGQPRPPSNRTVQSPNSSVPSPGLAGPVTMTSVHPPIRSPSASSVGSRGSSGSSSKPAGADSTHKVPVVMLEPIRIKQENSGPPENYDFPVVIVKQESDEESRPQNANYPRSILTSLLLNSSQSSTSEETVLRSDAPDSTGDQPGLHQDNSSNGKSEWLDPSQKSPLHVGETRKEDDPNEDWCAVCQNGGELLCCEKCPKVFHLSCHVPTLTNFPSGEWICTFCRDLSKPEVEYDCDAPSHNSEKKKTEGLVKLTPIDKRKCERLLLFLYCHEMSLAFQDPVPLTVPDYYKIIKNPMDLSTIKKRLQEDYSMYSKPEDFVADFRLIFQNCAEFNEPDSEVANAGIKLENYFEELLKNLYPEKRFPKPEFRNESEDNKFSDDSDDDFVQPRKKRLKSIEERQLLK
# [6] = biological target: T3, ATPase family AAA domain-containing protein 2 (Homo sapiens) (UniProt Q6PL18); assay: Binding affinity to ATAD2 bromodomain (unknown origin) assessed as change in melting temperature at 10 uM by differential scanning fluorimetric analysis
# T3 sequence (whole entry): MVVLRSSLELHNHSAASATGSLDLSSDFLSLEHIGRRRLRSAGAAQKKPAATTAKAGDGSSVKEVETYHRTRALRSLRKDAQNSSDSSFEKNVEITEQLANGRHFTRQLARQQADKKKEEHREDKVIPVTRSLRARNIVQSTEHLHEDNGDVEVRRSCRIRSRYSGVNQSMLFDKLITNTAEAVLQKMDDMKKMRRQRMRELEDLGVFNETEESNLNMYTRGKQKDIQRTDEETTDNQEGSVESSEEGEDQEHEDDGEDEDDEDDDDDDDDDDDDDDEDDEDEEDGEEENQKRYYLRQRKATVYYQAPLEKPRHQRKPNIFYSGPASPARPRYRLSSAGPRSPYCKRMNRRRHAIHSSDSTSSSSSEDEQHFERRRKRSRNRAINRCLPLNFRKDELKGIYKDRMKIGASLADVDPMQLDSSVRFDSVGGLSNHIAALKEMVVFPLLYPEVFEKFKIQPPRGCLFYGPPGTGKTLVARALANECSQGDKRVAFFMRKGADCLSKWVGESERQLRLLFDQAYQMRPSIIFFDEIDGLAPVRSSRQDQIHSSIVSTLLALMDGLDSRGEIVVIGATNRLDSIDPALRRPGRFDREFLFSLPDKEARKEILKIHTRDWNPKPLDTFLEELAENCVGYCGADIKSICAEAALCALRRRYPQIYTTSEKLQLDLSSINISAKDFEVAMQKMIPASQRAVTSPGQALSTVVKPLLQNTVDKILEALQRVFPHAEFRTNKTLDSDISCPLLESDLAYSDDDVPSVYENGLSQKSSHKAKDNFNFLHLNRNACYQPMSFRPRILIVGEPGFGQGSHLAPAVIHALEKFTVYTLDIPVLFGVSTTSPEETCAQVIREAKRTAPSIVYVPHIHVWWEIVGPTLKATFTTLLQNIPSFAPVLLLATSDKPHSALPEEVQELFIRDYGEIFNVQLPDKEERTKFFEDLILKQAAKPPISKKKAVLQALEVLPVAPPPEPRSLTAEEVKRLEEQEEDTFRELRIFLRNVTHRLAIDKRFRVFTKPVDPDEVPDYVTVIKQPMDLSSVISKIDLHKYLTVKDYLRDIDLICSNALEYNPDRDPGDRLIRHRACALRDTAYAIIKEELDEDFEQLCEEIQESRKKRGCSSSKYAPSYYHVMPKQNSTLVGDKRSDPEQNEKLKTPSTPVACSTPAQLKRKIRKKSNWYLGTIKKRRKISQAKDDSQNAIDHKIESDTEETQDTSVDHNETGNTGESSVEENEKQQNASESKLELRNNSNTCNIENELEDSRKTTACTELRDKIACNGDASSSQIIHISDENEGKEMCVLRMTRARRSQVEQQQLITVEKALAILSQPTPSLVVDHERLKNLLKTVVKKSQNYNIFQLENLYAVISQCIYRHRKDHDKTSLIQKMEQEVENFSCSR
# Homo sapiens [7] = species on record: Homo sapiens; assay: Binding affinity to CBP (unknown origin) assessed as change in melting temperature at 10 uM by differential scanning fluorimetric analysis
# Homo sapiens [8] = species on record: Homo sapiens; assay: Selectivity ratio of IC50 for BRD4 bromodomain-1 (unknown origin) to IC50 for CBP (unknown origin)
# [9] = biological target: T4, Bromodomain-containing protein 9 (Homo sapiens) (UniProt Q9H8M2); assay: Binding affinity to BRD9 bromodomain (unknown origin) assessed as change in melting temperature at 10 uM by differential scanning fluorimetric analysis
# T4 sequence (whole entry): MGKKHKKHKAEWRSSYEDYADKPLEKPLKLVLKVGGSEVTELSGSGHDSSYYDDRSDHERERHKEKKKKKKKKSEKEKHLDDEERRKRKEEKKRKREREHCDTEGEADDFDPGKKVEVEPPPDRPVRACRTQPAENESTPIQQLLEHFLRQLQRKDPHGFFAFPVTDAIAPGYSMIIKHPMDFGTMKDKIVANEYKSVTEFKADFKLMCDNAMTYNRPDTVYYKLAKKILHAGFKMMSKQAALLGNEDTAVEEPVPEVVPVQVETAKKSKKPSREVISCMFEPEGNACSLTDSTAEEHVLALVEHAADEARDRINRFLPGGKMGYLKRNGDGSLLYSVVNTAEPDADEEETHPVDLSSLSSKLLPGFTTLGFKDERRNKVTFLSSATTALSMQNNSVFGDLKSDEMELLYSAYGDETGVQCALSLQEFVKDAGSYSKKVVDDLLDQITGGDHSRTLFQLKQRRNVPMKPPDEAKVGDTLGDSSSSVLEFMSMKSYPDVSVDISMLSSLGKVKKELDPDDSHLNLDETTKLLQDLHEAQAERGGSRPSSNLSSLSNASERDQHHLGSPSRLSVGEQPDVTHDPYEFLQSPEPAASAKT
# [10] = biological target: Protein polybromo-1 (Homo sapiens) (UniProt Q86U86); assay: Binding affinity to PB1-5 bromodomain (unknown origin) assessed as change in melting temperature at 10 uM by differential scanning fluorimetric analysis
# [11] = biological target: PH-interacting protein (Homo sapiens) (UniProt Q8WWQ0); assay: Binding affinity to PHIP bromodomain-2 (unknown origin) assessed as change in melting temperature at 10 uM by differential scanning fluorimetric analysis
# [12] = biological target: Transcription initiation factor TFIID subunit 1 (Homo sapiens) (UniProt P21675); assay: Binding affinity to TAF1 bromodomain-2 (unknown origin) assessed as change in melting temperature at 10 uM by differential scanning fluorimetric analysis
# Sequence of Transcription initiation factor TFIID subunit 1 (Homo sapiens) (P21675 whole entry): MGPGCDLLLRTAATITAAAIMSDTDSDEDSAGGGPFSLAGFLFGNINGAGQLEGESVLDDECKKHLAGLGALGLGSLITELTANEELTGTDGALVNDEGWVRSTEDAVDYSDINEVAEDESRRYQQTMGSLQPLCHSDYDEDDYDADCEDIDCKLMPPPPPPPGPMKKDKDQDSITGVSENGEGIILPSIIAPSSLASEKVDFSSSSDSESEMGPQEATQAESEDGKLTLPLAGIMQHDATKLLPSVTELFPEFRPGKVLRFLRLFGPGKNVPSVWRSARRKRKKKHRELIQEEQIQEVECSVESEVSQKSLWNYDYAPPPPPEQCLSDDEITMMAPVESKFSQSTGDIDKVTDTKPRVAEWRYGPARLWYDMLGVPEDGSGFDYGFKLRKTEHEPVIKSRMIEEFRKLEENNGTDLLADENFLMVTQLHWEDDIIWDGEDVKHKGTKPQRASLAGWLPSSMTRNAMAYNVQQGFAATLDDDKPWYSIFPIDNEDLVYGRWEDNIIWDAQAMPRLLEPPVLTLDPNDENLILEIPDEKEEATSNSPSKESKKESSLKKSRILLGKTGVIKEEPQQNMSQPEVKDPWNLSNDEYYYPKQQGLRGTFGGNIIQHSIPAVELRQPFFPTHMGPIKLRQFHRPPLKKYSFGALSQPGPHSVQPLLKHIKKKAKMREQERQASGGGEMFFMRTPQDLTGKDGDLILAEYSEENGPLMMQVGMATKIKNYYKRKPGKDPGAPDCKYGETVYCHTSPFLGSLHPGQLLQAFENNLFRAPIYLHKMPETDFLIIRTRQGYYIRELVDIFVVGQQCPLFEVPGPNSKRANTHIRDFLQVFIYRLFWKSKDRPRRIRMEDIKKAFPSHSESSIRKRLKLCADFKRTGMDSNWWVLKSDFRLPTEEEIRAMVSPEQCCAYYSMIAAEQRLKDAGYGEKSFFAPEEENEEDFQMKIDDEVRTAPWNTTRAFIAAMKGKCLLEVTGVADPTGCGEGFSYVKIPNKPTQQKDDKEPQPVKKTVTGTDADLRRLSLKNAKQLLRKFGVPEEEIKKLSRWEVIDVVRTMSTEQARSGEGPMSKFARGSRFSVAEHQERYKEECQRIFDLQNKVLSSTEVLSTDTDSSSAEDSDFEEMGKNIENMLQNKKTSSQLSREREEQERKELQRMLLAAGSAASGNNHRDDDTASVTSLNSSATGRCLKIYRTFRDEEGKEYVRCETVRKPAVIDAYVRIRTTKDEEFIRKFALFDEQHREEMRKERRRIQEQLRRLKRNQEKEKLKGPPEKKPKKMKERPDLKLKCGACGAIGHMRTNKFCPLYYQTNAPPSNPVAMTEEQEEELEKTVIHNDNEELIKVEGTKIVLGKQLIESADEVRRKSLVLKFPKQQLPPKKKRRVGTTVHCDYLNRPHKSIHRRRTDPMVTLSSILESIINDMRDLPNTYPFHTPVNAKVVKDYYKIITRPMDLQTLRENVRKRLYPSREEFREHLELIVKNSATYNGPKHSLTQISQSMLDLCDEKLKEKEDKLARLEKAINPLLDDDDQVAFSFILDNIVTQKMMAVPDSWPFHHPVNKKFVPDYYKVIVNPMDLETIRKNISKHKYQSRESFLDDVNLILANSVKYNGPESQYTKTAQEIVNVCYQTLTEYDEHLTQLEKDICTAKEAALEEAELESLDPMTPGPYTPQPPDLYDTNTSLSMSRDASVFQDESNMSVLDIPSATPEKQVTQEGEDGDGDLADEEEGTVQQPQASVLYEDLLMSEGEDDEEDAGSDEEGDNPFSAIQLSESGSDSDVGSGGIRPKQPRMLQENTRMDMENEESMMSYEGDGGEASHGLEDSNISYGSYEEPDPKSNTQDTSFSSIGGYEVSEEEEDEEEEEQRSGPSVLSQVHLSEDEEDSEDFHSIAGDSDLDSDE
# Sequence of Histone acetyltransferase KAT2B (Homo sapiens) (Q92831 whole entry, looked up): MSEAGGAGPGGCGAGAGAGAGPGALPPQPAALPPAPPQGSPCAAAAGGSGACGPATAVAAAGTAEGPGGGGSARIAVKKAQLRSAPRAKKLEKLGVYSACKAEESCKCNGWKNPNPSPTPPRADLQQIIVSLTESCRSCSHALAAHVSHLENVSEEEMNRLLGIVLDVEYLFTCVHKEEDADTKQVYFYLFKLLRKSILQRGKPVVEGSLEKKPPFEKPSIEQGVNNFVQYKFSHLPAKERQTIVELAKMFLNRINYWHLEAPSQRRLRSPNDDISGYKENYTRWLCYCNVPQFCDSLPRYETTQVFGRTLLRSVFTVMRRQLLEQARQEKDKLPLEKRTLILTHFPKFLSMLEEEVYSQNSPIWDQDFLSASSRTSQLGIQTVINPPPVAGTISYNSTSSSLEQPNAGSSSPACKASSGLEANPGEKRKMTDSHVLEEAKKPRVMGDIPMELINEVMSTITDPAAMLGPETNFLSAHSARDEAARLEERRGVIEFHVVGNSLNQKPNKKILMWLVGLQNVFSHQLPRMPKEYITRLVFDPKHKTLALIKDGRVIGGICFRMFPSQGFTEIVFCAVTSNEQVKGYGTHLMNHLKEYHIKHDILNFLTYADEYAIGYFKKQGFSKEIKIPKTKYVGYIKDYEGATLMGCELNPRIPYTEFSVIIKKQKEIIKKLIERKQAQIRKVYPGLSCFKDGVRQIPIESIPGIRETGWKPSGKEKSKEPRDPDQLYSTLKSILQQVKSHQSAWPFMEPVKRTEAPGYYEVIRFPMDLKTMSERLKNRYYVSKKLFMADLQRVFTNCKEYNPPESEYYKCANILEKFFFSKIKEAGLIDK
# Sequence of Protein polybromo-1 (Homo sapiens) (Q86U86 whole entry): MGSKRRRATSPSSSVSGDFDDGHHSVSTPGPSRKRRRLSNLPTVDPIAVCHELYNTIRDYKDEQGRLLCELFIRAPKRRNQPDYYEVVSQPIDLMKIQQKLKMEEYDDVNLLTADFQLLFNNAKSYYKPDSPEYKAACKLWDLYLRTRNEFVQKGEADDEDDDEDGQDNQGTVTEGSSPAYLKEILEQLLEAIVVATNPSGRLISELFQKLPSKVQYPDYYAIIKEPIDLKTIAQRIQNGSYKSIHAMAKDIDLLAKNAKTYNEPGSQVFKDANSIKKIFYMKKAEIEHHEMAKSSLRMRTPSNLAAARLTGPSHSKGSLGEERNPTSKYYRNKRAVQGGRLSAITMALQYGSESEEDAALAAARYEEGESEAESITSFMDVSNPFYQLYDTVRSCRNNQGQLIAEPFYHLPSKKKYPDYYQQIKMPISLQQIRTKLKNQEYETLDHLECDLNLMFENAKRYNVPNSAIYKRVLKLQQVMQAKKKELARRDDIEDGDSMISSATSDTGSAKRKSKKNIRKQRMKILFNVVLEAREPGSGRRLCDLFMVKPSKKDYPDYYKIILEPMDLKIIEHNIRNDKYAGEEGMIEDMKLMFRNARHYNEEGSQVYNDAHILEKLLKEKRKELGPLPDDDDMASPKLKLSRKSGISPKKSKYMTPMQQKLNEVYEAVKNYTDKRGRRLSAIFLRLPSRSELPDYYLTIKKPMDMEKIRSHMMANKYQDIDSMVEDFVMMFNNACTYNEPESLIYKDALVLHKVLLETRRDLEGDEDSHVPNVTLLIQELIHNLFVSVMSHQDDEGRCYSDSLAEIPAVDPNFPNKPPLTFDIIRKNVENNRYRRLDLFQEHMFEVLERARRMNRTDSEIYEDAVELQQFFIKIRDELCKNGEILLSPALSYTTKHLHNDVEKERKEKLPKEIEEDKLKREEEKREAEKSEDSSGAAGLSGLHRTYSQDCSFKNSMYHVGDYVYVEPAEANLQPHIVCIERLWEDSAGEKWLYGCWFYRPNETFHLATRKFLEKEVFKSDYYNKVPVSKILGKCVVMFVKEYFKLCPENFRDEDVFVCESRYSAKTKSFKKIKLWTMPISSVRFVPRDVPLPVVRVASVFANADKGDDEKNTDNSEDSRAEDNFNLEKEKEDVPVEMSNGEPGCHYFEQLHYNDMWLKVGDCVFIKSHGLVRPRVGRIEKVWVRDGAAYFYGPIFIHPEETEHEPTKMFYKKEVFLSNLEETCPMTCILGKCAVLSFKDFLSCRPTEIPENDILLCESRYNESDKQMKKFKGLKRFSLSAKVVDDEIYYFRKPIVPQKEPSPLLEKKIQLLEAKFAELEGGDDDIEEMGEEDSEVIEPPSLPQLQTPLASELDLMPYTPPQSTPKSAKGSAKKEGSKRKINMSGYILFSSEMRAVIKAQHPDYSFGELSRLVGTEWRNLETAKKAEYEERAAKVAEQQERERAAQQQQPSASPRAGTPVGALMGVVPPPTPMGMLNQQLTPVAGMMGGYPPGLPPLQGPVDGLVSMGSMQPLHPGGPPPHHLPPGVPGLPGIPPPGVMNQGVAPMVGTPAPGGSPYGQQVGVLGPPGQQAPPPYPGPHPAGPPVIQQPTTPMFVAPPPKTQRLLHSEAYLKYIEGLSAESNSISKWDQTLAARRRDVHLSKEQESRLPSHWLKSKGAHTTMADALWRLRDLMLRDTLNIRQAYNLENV
SMILES,IC50 ([1]; read-out: pIC50 (converted)),pIC50 [2],further results
Cc1noc(C)c1-c1ccc2c(c1)C(OCCCN1CCCC1)CC2 (racemic),6310 nM,–,–
Cc1noc(C)c1-c1ccc2c(c1)nc(C)n2Cc1ccc(O)cc1,2000 nM,5.1,–
Cc1noc(C)c1-c1ccc2c(c1)ncn2Cc1ccc(Cl)c(Cl)c1,10000 nM,5.9,–
Cc1noc(C)c1-c1ccc2nc[nH]c2c1,6310 nM,5.4,–
Cc1noc(C)c1-c1ccc2c(c1)C(OCCCN1CCOCC1)CC2 (racemic),6310 nM,–,–
Cc1noc(C)c1-c1ccc2c(c1)C(OCc1ccc3ccccc3n1)CC2 (racemic),20000 nM,–,–
Cc1noc(C)c1-c1ccc2c(c1)C(OCCCN1CCCCC1)CC2 (racemic),6310 nM,–,–
Cc1noc(C)c1-c1ccc2c(c1)ncn2Cc1ccc(Cl)cc1,2510 nM,5.7,–
COc1ccc(Cn2c(C)nc3ccc(-c4c(C)noc4C)cc32)cc1,1580 nM,4.6,–
Cc1noc(C)c1-c1ccc2c(c1)ncn2Cc1cccc(Br)c1,1580 nM,5.6,–
Cc1noc(C)c1-c1ccc2c(c1)C(OCc1ccccc1)CC2 (racemic),31600 nM,–,–
Cc1noc(C)c1-c1ccc2c(c1)C(O)(c1ccccc1)CC2 (racemic),1260 nM,4.7,–
Cc1noc(C)c1-c1ccc2c(c1)C(=O)CC2,63100 nM,< 4.6,–
COC(=O)c1ccc(Cn2cnc3ccc(-c4c(C)noc4C)cc32)cc1,1260 nM,< 4,–
Cc1noc(C)c1-c1ccc2cc[nH]c2c1,20000 nM,< 5,–
Cc1noc(C)c1-c1ccc2c(c1)C(OCCCN1CCNCC1)CC2 (racemic),3980 nM,–,–
Cc1noc(C)c1-c1ccc2ncn(Cc3ccc(C(=O)N(C)C)cc3)c2c1,2000 nM,5.2,–

# The next lines start with results.
IC50 ([1]; read-out: pIC50 (converted)),pIC50 [2],SMILES,further results
631 nM,4.9,Cc1noc(C)c1-c1ccc2ncn(Cc3cccc(F)c3)c2c1,–
1260 nM,4.7,Cc1noc(C)c1-c1ccc2ncn(Cc3cccc(Cl)c3)c2c1,–
794 nM,< 5,Cc1noc(C)c1-c1ccc2ncn(Cc3ccccc3Cl)c2c1,–
631 nM,5.2,Cc1noc(C)c1-c1ccc2ncn(Cc3cccc(C(=O)N(C)C)c3)c2c1,–
1000 nM,5.9,Cc1noc(C)c1-c1ccc2ncn(Cc3ccccc3C#N)c2c1,–
200 nM,< 4,Cc1noc(C)c1-c1ccc2ncn(Cc3ccc(C#N)cc3)c2c1,ΔTm [3]: 3.2 °C; ΔTm [4]: -0.2 °C; ΔTm [5]: -0.2 °C; ΔTm [6]: -0.1 °C; ΔTm (Homo sapiens [7]): 1.1 °C; IC50 ([1]; read-out: IC50): 180 nM; Ratio IC50 (Homo sapiens [8]): 100; ΔTm [9]: 0.1 °C; ΔTm [10]: -0.1 °C; ΔTm [11]: -0.4 °C; ΔTm [12]: 0 °C
794 nM,< 5,COc1ccc(Cn2cnc3ccc(-c4c(C)noc4C)cc32)cc1,–
631 nM,< 4,Cc1noc(C)c1-c1ccc2ncn(Cc3ccccc3[N+](=O)[O-])c2c1,–
1000 nM,< 5,Cc1noc(C)c1-c1ccc2ncn(Cc3cccc(Br)c3)c2c1,–
3980 nM,< 4,Cc1noc(C)c1-c1ccc2ncn(Cc3ccc(Cl)c(Cl)c3)c2c1,–
12600 nM,4.8,Cc1noc(C)c1-c1ccc2c(c1)ncn2Cc1ccccc1[N+](=O)[O-],–
